Literature values in US9237750B2, “Ornidazole and related compounds for use as herbicides” (RAMOT AT TEL-AVIV UNIVERSITY LTD., priority 2012, dated 2016).

Tested on: ferredoxin-linked NADP+ reduction
Conditions: photosystem II non-operative, ascorbate as electron source, broken spinach chloroplasts, DCPIP; cited from earlier work

Cc1ncc([N+](=O)[O-])n1CCO [Metronidazole, 1-β-hydroxyethyl-2-methyl-5-nitroimidazole]
inhibition of ferredoxin-linked NADP+ reduction: potent inhibitor
